Values quoted from earlier work as cited in patent EP4702989A1, “DRUG FOR TREATING LOCALLY ADVANCED UNRESECTABLE OR METASTATIC COLORECTAL CANCER AND USE THEREOF” (Shenzhen Chipscreen Biosciences Co., Ltd., priority 2023, dated 2024).
Like-named read-outs stand apart in the source and are kept apart here.

How the values were obtained:
[1] = FRESCO-2; >=3 treatment lines; sample size 461; 2023 Lancet
[2] = FRESCO; >=3 treatment lines; sample size 278; 2018 JAMA
[3] = CORRECT; >=2 treatment lines; sample size 505; 2013 Lancet
[4] = CONCUR; >=3 treatment lines; sample size 136; 2015 Lancet

SMILES	Median PFS (months) [1]	ORR [1]	Median PFS (months) [2]	ORR [2]	Median PFS (months) [3]	ORR [3]	Median PFS (months) [4]	ORR [4]
CNC(=O)c1c(C)oc2cc(Oc3ncnc4cc(OC)c(OC)cc34)ccc12 [Fruquintinib]	3.7 months	1.5%	3.7 months	4.7%	–	–	–	–
CNC(=O)c1cc(Oc2ccc(NC(=O)Nc3ccc(Cl)c(C(F)(F)F)c3)c(F)c2)ccn1 [Regorafenib]	–	–	–	–	1.9 months	1.0%	3.2 months	4.4%
